{"source": "patent US20090162413A1", "about": "(priority 1998, published 2009)", "key": {"[1]": {"conditions": "cynomolgus monkey, in vivo, iv, 2.5 mg/kg"}, "[2]": {"tested_on": "human coronary artery smooth muscle cells (hCaSMC)", "experiment": "3H-thymidine uptake proliferation assay, hCaSMC", "assay_type": "cell-based", "procedure": "Experiments were performed to investigate interactions between zotarolimus (ABT-578) and paclitaxel when administered in combination. The effects of paclitaxel and zotarolimus on the anti-proliferative activity of human coronary artery smooth muscle ([…]) and endothelial […] determined using an in vitro proliferation assay. The proliferation and migration of vascular smooth muscle cells into the vascular neointima is a characteristic pathologic response seen in restenotic lesions (Lafont and Libby, 1998). As a result, in vitro assays which specifically measure the anti-proliferative activity of candidate anti-restenotic compounds on human coronary artery smooth muscle and endothelial cells predict potential anti-restenotic activity in vivo. Compounds or combinations of compounds which attenuate growth factor-mediated human coronary artery smooth muscle cell ([…]) proliferation, as measured by the tritium incorporation assay in vitro, are candidate anti-restenotic agents. The tritium incorporation assay is an accurate and sensitive method to determine cell number and proliferation. […] The attenuation of zotarolimus's anti-proliferative activity by tacrolimus is a clear example of this effect (FIG. 10A). To determine the potential anti-restenotic activity of combinations of zotarolimus and paclitaxel, the proliferation of […] was measured in the presence of each compound and in combination. To determine if paclitaxel attenuated or augmented the activity of zotarolimus the effect of paclitaxel and zotarolimus alone and in combination on growth-factor induced proliferation was determined. Data were analyzed for additivity using an isobologram approach and a combination index analysis. An isobologram is a Cartesian plot of pairs of doses that, in combination, yield a specified level of effect. It is a convenient way of graphically displaying results of drug-combination and similar studies, because paired values of experimental points that fall below or above the line connecting the axial points indicate synergistic and non-synergistic interactions, respectively. Cell proliferation was monitored by following incorporation of ^3H-thymidine into newly synthesized DNA of cells stimulated by serum and growth factors. Exponentially growing […] were seeded into 96-well flat bottom tissue culture plates at 5,000 cells/well (10,000 cells/well for […]). The cells were allowed to attach overnight. The growth medium was removed the following day, and cells were washed twice with un-supplemented (basal) medium to remove traces of serum and growth factors. […] PerkinElmer; Wellesley; MA) was added to each filter well and the plates were counted using a TopCount microplate scintillation counter (PerkinElmer). […]"}, "[3]": {"experiment": "accelerated in vitro elution from PC1036 coated drug-loaded stents (Example 10)", "assay_type": "physicochemical", "conditions": "stents with 10 μg/mm zotarolimus alone or with paclitaxel"}, "[4]": {"tested_on": "human coronary artery endothelial cells (hCaEC)", "experiment": "3H-thymidine uptake proliferation assay, hCaEC", "assay_type": "cell-based", "procedure": "Experiments were performed to investigate interactions between zotarolimus (ABT-578) and paclitaxel when administered in combination. The effects of paclitaxel and zotarolimus on the anti-proliferative activity of human coronary artery smooth muscle ([…]) and endothelial […] determined using an in vitro proliferation assay. The proliferation and migration of vascular smooth muscle cells into the vascular neointima is a characteristic pathologic response seen in restenotic lesions (Lafont and Libby, 1998). As a result, in vitro assays which specifically measure the anti-proliferative activity of candidate anti-restenotic compounds on human coronary artery smooth muscle and endothelial cells predict potential anti-restenotic activity in vivo. To determine if paclitaxel attenuated or augmented the activity of zotarolimus the effect of paclitaxel and zotarolimus alone and in combination on growth-factor induced proliferation was determined. Data were analyzed for additivity using an isobologram approach and a combination index analysis. An isobologram is a Cartesian plot of pairs of doses that, in combination, yield a specified level of effect. It is a convenient way of graphically displaying results of drug-combination and similar studies, because paired values of experimental points that fall below or above the line connecting the axial points indicate synergistic and non-synergistic interactions, respectively. Cell proliferation was monitored by following incorporation of ^3H-thymidine into newly synthesized DNA of cells stimulated by serum and growth factors. Exponentially growing […] were seeded into 96-well flat bottom tissue culture plates at 5,000 cells/well (10,000 cells/well for […]). The cells were allowed to attach overnight. […] PerkinElmer; Wellesley; MA) was added to each filter well and the plates were counted using a TopCount microplate scintillation counter (PerkinElmer). […] The concentration eliciting a specific anti-proliferative effect was determined using a four-parameter equation (equation 1): […]"}, "Human MLR": {"tested_on": "Human MLR", "experiment": "human mixed lymphocyte reaction (MLR) assay", "assay_type": "cell-based", "conditions": "read-out: Human MLR IC50 ± S.E.M."}}, "data": [{"compound": "40-epi-N-[2′-pyridone]-rapamycin [Example 2-pyridone]", "values": [{"measurement": "AUC", "setting": "[1]", "result": 2.55, "unit": "ng·h/mL"}]}, {"compound": "COC1CC2CCC(C)C(O)(O2)C(=O)C(=O)N2CCCCC2C(=O)OC(C(C)CC2CCC(n3ccc(=O)cc3)C(OC)C2)CC(=O)C(C)C=C(C)C(O)C(OC)C(=O)C(C)CC(C)C=CC=CC=C1C", "note": "(stereo not drawn) [Example 4-pyridone, 40-epi-N-[4′-pyridone]-rapamycin]", "values": [{"measurement": "AUC", "setting": "[1]", "result": 5.59, "unit": "ng·h/mL"}]}, {"compound": "CC(=O)O[C@H]1C(=O)[C@@]2(C)[C@H]([C@H](OC(=O)c3ccccc3)[C@]3(O)C[C@H](OC(=O)[C@H](O)[C@@H](NC(=O)c4ccccc4)c4ccccc4)C(C)=C1C3(C)C)[C@]1(OC(C)=O)CO[C@@H]1C[C@@H]2O", "note": "[PAC, paclitaxel]", "values": [{"measurement": "IC50", "setting": "[2]; Homo sapiens, read-out: hCaSMC IC50 Mean ± SEM", "result": "3 ± 0.5", "unit": "nM"}, {"measurement": "effect on the inhibition of proliferation by zotarolimus", "setting": "[2]; hCaSMC, FIG. 10B", "result": "not blocked"}, {"measurement": "effect on the elution profile of zotarolimus", "setting": "[3]", "result": "little effect"}, {"measurement": "IC50", "setting": "[4]; Homo sapiens, Endothelial cell, read-out: hCaEC IC50 Mean ± SEM", "result": "4.6 ± 0.3", "unit": "nM"}, {"measurement": "effect on the inhibition of proliferation by zotarolimus", "setting": "[4]; hCaEC, FIG. 10C", "result": "not blocked"}]}, {"compound": "CO[C@H]1C[C@@H]2CC[C@@H](C)[C@@](O)(O2)C(=O)C(=O)N2CCCC[C@H]2C(=O)O[C@H]([C@H](C)C[C@@H]2CC[C@@H](O)[C@H](OC)C2)CC(=O)[C@H](C)/C=C(\\C)[C@@H](O)[C@@H](OC)C(=O)[C@H](C)C[C@H](C)/C=C/C=C/C=C/1C", "note": "[Rapamycin]", "values": [{"measurement": "IC50", "setting": "Human MLR", "result": "0.91 ± 0.36", "unit": "nM"}]}, {"compound": "C=CC[C@@H]1/C=C(\\C)C[C@H](C)C[C@H](OC)[C@H]2O[C@@](O)(C(=O)C(=O)N3CCCC[C@H]3C(=O)O[C@H](/C(C)=C/[C@@H]3CC[C@@H](O)[C@H](OC)C3)[C@H](C)[C@@H](O)CC1=O)[C@H](C)C[C@@H]2OC", "note": "[tacrolimus]", "values": [{"measurement": "effect on the anti-proliferative activity of zotarolimus", "setting": "[2]; smooth muscle cells in vitro, FIG. 10A", "result": "blocks the anti-proliferative activity of zotarolimus"}]}]}
